From US20240287138A1, “CYCLIC PEPTIDES FOR INHIBITING TNF RECEPTOR 1 ACTIVITY” (Merck Sharp & Dohme LLC, priority 2023, published 2024)
Numbered stars: 1 amine (or outer) side, 2 acyl side, 3 side chain; on linkers, the order of the positions; unused ones are H or OH. Bridge positions count the residues as written; N and C are the ends. Square brackets hold non-standard residues; d marks the D form. Peptide text beside a SMILES is read from it. Trp(βS-Me,7-OMe) = COc1cccc2c([C@H](C)[C@H](N)C(=O)O)c[nH]c12; Trp(4-Cl) = N[C@@H](Cc1c[nH]c2cccc(Cl)c12)C(=O)O; Trp(7-Cl) = N[C@@H](Cc1c[nH]c2c(Cl)cccc12)C(=O)O; X15 = C[C@H](c1ccc(O)cc1)[C@H](N[*:1])C(=O)[*:2]; Phe(4-CONH2) = NC(=O)c1ccc(C[C@H](N)C(=O)O)cc1; Phe(4-COOH) = N[C@@H](Cc1ccc(C(=O)O)cc1)C(=O)O; Trp(7-aza) = N[C@@H](Cc1c[nH]c2ncccc12)C(=O)O; αMeW = C[C@](N)(Cc1c[nH]c2ccccc12)C(=O)O; X1 = O=C([C@@H]1CC[C@H](N[*:1])C1)[*:2]; 2Nal = N[C@@H](Cc1ccc2ccccc2c1)C(=O)O; Pip(4-aza) = O=C(O)[C@@H]1CNCCN1; hPhe = N[C@@H](CCc1ccccc1)C(=O)O; 3Pal = N[C@@H](Cc1cccnc1)C(=O)O; 4Pal = N[C@@H](Cc1ccncc1)C(=O)O; NMeE = CN[C@@H](CCC(=O)O)C(=O)O; Dap(Me) = CNC[C@H](N)C(=O)O; αMeS = C[C@](N)(CO)C(=O)O; Nle = CCCC[C@H](N)C(=O)O; Dap = NC[C@H](N)C(=O)O; Sar = CNCC(=O)O

How the values were obtained:
[1] = biological target: T1, human soluble TNFR1 (sTNFR1) (Homo sapiens, UniProt P19438); assay: Human sTNFR1-peptide displacement assay (LanthaScreen Eu TR-FRET binding assay)
T1 construct: made in house; host or cells: Sf21 (baculovirus)
T1 sequence (P19438 with tags, fused parts or gaps): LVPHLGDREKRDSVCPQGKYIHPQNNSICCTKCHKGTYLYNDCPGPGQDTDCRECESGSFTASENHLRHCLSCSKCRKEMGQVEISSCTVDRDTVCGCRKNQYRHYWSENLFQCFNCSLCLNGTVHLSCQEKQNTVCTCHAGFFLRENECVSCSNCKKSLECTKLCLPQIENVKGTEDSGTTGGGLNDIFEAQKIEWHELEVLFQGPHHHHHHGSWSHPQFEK
In short: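 Readout is the 665/615 nm TR-FRET ratio (Eu anti-His donor, streptavidin-Alexa647 acceptor), normalized to DMSO and saturating displacer, fit by Morrison-based five-parameter logistic for Kd^app. His-tagged sTNFR1 (1-211) prebound to 100 nM biotinylated peptide SEQ ID NO.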

[2] = biological target: T2, human TNFR2 ECD protein (Homo sapiens, UniProt P20333); assay: SPR off-target binding (selectivity) to human TNFR2 ECD
T2 construct: HRV 3C protease cleavage site (C); 6His (C, cleaved yes); made in house; host or cells: Sf21 insect cells (baculovirus), secreted
T2 sequence (P20333 23-257): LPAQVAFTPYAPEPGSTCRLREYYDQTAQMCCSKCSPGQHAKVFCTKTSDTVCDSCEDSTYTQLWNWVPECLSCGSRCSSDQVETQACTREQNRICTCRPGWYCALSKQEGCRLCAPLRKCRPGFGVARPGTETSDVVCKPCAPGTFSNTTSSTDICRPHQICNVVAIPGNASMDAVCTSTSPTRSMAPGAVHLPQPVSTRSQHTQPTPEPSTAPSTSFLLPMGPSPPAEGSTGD
In short: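 Read-out: kon, koff and derived affinity from SPR response units. Human TNFR1 and TNFR2 ECD, Avi-tag biotinylated with BirA, captured on a streptavidin surface; peptides injected under laminar flow in HEPES-saline with EDTA, P20 and 2% DMSO.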

SMILES	IC50 [1] [nM]	Kd [2] [nM]	Kd [1] [nM]
CN1CC(=O)N[C@@H](Cc2c[nH]c3ccccc23)C(=O)N[C@H](C(N)=O)CSCC(=O)N[C@@H](CCc2ccccc2)C(=O)N[C@@H](Cc2ccncc2)C(=O)N[C@@H](CN)C(=O)N[C@@H](Cc2c[nH]c3ccccc23)C(=O)N2CCC[C@@H]2C(=O)N[C@@H](CC(N)=O)C(=O)N[C@@H](Cc2ccncc2)C(=O)N[C@@H](Cc2ccc3ccccc3c2)C(=O)N[C@@](C)(CO)C(=O)N[C@@H](Cc2ccc(C(=O)O)cc2)C(=O)N[C@@H](Cc2cccnc2)C1=O [SEQ ID NO. 233] ({CH2CO}-[hPhe][4Pal][Dap]W[dP]N[4Pal][2Nal][αMeS][Phe(4-COOH)][3Pal][Sar]WC-NH2; thioether N-14)	2.65	> 1000	–
CCCC[C@@H]1NC(=O)CSC[C@@H](C(N)=O)NC(=O)[C@](C)(Cc2c[nH]c3ccccc23)NC(=O)CN(C)C(=O)[C@H](Cc2ccc(O)cc2)NC(=O)[C@H](Cc2ccc(C(=O)O)cc2)NC(=O)[C@](C)(CO)NC(=O)[C@H](Cc2c[nH]c3c(Cl)cccc23)NC(=O)[C@H](Cc2ccncc2)NC(=O)[C@H](CC(N)=O)NC(=O)[C@H](CCC(=O)O)N(C)C(=O)[C@H](Cc2c[nH]c3ncccc23)NC(=O)[C@H](CNC)NC(=O)[C@H](Cc2ccncc2)NC1=O [SEQ ID NO. 235] ({CH2CO}-[Nle][4Pal][Dap(Me)][Trp(7-aza)][NMeE]N[4Pal][Trp(7-Cl)][αMeS][Phe(4-COOH)]Y[Sar][αMeW]C-NH2; thioether N-14)	1.92	> 1000	–
CN1CC(=O)N[C@@H](Cc2c[nH]c3cccc(Cl)c23)C(=O)N[C@H](C(N)=O)CSCC(=O)N[C@@H](CCC(N)=O)C(=O)N[C@@H](Cc2ccncc2)C(=O)N[C@@H](CO)C(=O)N[C@@H](Cc2c[nH]c3ncccc23)C(=O)N(C)[C@@H](CCC(=O)O)C(=O)N[C@@H](CC(N)=O)C(=O)N[C@@H](Cc2ccncc2)C(=O)N[C@@H](Cc2c[nH]c3c(Cl)cccc23)C(=O)N[C@@](C)(CO)C(=O)N[C@@H](Cc2ccc(C(=O)O)cc2)C(=O)N[C@@H](Cc2ccc(O)cc2)C1=O [SEQ ID NO. 239] ({CH2CO}-Q[4Pal]S[Trp(7-aza)][NMeE]N[4Pal][Trp(7-Cl)][αMeS][Phe(4-COOH)]Y[Sar][Trp(4-Cl)]C-NH2; thioether N-14)	0.52	> 1000	0.61
CCCC[C@@H]1NC(=O)[C@@H]2CC[C@@H](C2)NC(=O)[C@H]([C@@H](C)c2c[nH]c3c(OC)cccc23)NC(=O)CN(C)C(=O)[C@H](Cc2ccc(OC)cc2)NC(=O)[C@H](Cc2ccc(C(=O)O)cc2)NC(=O)[C@](C)(CO)NC(=O)[C@H](Cc2c[nH]c3c(Cl)cccc23)NC(=O)[C@H](Cc2ccc(C(N)=O)cc2)NC(=O)[C@H](CCC(N)=O)NC(=O)[C@H](CCC(=O)O)N(C)C(=O)[C@H](Cc2c[nH]c3ccccc23)NC(=O)[C@@H]2CNCCN2C(=O)[C@H](Cc2ccncc2)NC1=O [SEQ ID NO. 240] (cyclo([4Pal][Pip(4-aza)]W[NMeE]Q[Phe(4-CONH2)][Trp(7-Cl)][αMeS][Phe(4-COOH)]Y(Me)[Sar][Trp(βS-Me,7-OMe)][X1][Nle]))	–	> 1000	0.23
CN1CC(=O)N[C@@H](Cc2c[nH]c3ccccc23)C(=O)N[C@H](C(N)=O)CSCC(=O)N[C@@H](CCCCN)C(=O)N[C@@H](Cc2ccc(O)cc2)C(=O)N[C@@H](CO)C(=O)N[C@@H](Cc2c[nH]c3ccccc23)C(=O)N2CCC[C@@H]2C(=O)N[C@@H](CCC(N)=O)C(=O)N[C@@H](Cc2ccncc2)C(=O)N[C@@H](Cc2c[nH]c3ccccc23)C(=O)N[C@@](C)(CO)C(=O)N[C@@H](Cc2ccc(C(=O)O)cc2)C(=O)N[C@@H](Cc2ccc(O)cc2)C1=O [SEQ ID NO. 242] ({CH2CO}-KYSW[dP]Q[4Pal]W[αMeS][Phe(4-COOH)]Y[Sar]WC-NH2; thioether N-14)	1.21	> 1000	–
CCCC[C@@H]1NC(=O)CSC[C@@H](C(N)=O)NC(=O)[C@H]([C@@H](C)c2c[nH]c3c(OC)cccc23)NC(=O)CN(C)C(=O)[C@H](Cc2ccc(O)cc2)NC(=O)[C@H](Cc2ccc(C(=O)O)cc2)NC(=O)[C@](C)(CO)NC(=O)[C@H](Cc2c[nH]c3c(Cl)cccc23)NC(=O)[C@H](Cc2ccncc2)NC(=O)[C@H](CC(N)=O)NC(=O)[C@H](CCC(=O)O)N(C)C(=O)[C@H](Cc2c[nH]c3ncccc23)NC(=O)[C@H](CO)NC(=O)[C@H]([C@H](C)c2ccc(O)cc2)NC1=O [SEQ ID NO. 243] ({CH2CO}-[Nle][X15]S[Trp(7-aza)][NMeE]N[4Pal][Trp(7-Cl)][αMeS][Phe(4-COOH)]Y[Sar][Trp(βS-Me,7-OMe)]C-NH2; thioether N-14)	–	> 1000	0.49
